We go through 8 compounds from US10813909B2 (THE REGENTS OF THE UNIVERSITY OF CALIFORNIA, priority 2016, dated 2020).

Entries after “also recorded” stand apart in the source; their conditions may differ.

In one data set the test system is BIRC5. Briefly: Cardiac glycosides, BIRC5 expression in pancreatic cancer. The format is cell-based.
Data set [1] has as its system patient-derived pancreatic cancer cell line #5 (PDCL-5). Put plainly: Cell viability/proliferation (CellTiter-Glo, Gaussia luciferase), patient-derived line #5. Conditions: in vitro; metformin 500 μM, simvastatin 4 μM, digoxin 50 nM, alone or combined; paclitaxel 100 nM where added. The class given is cell-based, human. Background: In ATP-based viability assays light output follows the ATP content of the culture.

The subject of data set [2] is patient-derived pancreatic cancer cell line #15 (PDCL-15). Put plainly: Cell viability/proliferation (CellTiter-Glo, Gaussia luciferase), patient-derived line #15. The format is cell-based, human. Conditions: in vitro; metformin 500 μM, simvastatin 4 μM, digoxin 50 nM, alone or combined; paclitaxel 100 nM where added.
Another data set deals with MIA PaCa2 cells. Briefly: Cell viability/proliferation, MIA PaCa2. The format is cell-based, human. Conditions: in vitro; metformin 500 μM, simvastatin 4 μM, digoxin 50 nM, alone or combined; paclitaxel 100 nM where added.
A further data set deals with PANC1 cells. Briefly: Cell viability/proliferation, PANC1. The format is cell-based, human. Conditions: in vitro; metformin 500 μM, simvastatin 4 μM, digoxin 50 nM, alone or combined; paclitaxel 100 nM where added.
In another data set the test system is AsPC1 cells. Put plainly: Cell viability, AsPC1. The format is cell-based, human. Conditions: in vitro.
A further data set deals with Capan2 cells. Put plainly: Cell viability, Capan2. The format is cell-based, human. Particulars: in vitro, with and without paclitaxel.
Data set [3] has as its system BIRC5 mRNA. Put plainly: BIRC5 mRNA expression in PDCL5 in vitro. The format is cell-based, human.
The test system of data set [4] is BIRC5 mRNA. Briefly: BIRC5 mRNA expression in PDCL15 in vitro. The class given is cell-based, human.
The test system of a further data set is BIRC5 promoter. Put plainly: High-throughput drug screening with BIRC5 synthetic promoter. The format is cell-based, human. Conditions: high-throughput screening of FDA-approved drug libraries, MIA PaCa2 cells. From the text:
FIG. 12 is a graph illustrating BIRC5 SP high-throughput (HTS) drug screening in MIA PaCa2 cells, in accordance with one or more embodiments of the invention;
Pancreatic ductal adenocarcinoma (PDAC) is one of the most deadly forms of cancer and almost all patients with PDAC succumb to this lethal disease within months of diagnosis. To fight against PDAC, we utilized the concept of an “actionable gene”, on which action can be taken to alter disease progression or guide choice of therapy. We have identified actionable gene, BIRC5, for PDAC using microarray data sets and our own RNA-Seq data of PDAC patient specimens. […] .

For data set [5] the following is noted: mice; cited from earlier work.
The subject of a further data set is DUSP15 and RHOB. Put plainly: Cell death/apoptosis related gene expression in PDCL5 (RNA-Seq, real-time PCR). Particulars: PDCL5 in vitro.
Data set [6] concerns pancreatic cancer cell lines. Briefly: Proliferation, viability and apoptosis of pancreatic cancer cell lines in vitro (line not specified). The format is cell-based, human.
For data set [7], the system named is HK2, LDHA, LDHB, ENO2, ENO1. Briefly: Transcriptome analysis of glycolysis/TCA cycle/Warburg effect genes in pancreatic cancer cell lines. Conditions: patient-derived and commercial pancreatic cancer cell lines.

For `C[C@]12CC[C@H](O)C[C@H]1CC[C@@H]1[C@@H]2CC[C@]2(C)[C@@H](C3=CC(=O)OC3)CC[C@]12O` [Digitoxigenin], the “BIRC5 expression in pancreatic cancer” value in the data set with BIRC5 is recorded as “inhibit BIRC5 expression”.

As for `C[C@H]1O[C@@H](O[C@H]2[C@@H](O)C[C@H](O[C@H]3[C@@H](O)C[C@H](O[C@H]4CC[C@@]5(C)[C@H](CC[C@@H]6[C@@H]5C[C@@H](O)[C@]5(C)[C@@H](C7=CC(=O)OC7)CC[C@]65O)C4)O[C@@H]3C)O[C@@H]2C)C[C@H](O)[C@@H]1O` [Digoxin, digoxin], the “cell viability / proliferation, patient-derived pancreatic cancer cell #5” value in [1] is reported as “suppresses; also recorded: suppress”. In data set [2], the “cell viability / proliferation, patient-derived pancreatic cancer cell #15” value is “suppresses; also recorded: suppress”. Moreover, the “cell viability / proliferation, MIA PaCa2” value in the data set with MIA PaCa2 cells is recorded as “suppresses; also recorded: suppress”. Moreover, the “cell viability / proliferation, PANC1” value in the data set with PANC1 cells was “suppresses; also recorded: suppress”. Moreover, the “cell viability, AsPC1” value in the data set on AsPC1 cells is reported as “suppress”. Further, the “cell viability, Capan2” value in the data set with Capan2 cells was “suppress”. The “BIRC5 mRNA expression, PDCL #5” value in the data set on BIRC5 mRNA [3] was “suppress”. Moreover, the “BIRC5 mRNA expression, PDCL #15” value with BIRC5 mRNA [4] is reported as “suppress”. Moreover, the “expression from the BIRC5 promoter” value with BIRC5 promoter was “target BIRC5”. Further, the “BIRC5 expression in pancreatic cancer” value in the data set with BIRC5 is reported as “inhibit BIRC5 expression”. In addition, the “Lethal Dose (LD50)” value in [5] is given as 4 mg/kg. The “cell death/apoptosis related gene expression (DUSP15, RHOB)” value in the data set with DUSP15 and RHOB was “do not have an effect”.

Consider `CC(=O)O[C@H]1C[C@H](O[C@H]2[C@@H](O)C[C@H](O[C@H]3[C@@H](O)C[C@H](O[C@H]4CC[C@@]5(C)[C@H](CC[C@@H]6[C@@H]5C[C@@H](O)[C@]5(C)[C@@H](C7=CC(=O)OC7)CC[C@]65O)C4)O[C@@H]3C)O[C@@H]2C)O[C@H](C)[C@H]1O[C@@H]1O[C@H](CO)[C@@H](O)[C@H](O)[C@H]1O` [Lanatoside C], for which, in the data set with BIRC5, the “BIRC5 expression in pancreatic cancer” value was “inhibit BIRC5 expression”.

`CC[C@H](C)C(=O)O[C@H]1C[C@@H](C)C=C2C=C[C@H](C)[C@H](CC[C@@H]3C[C@@H](O)CC(=O)O3)[C@H]21` [Lovastatin, lovastatin]: the “cell viability / proliferation, MIA PaCa2” value with MIA PaCa2 cells is listed as “suppresses”. The “BIRC5 mRNA expression, PDCL #5” value in the data set on BIRC5 mRNA [3] was “suppress”. The “BIRC5 mRNA expression, PDCL #15” value in the data set with BIRC5 mRNA [4] is given as “suppress”.

As for `CN(C)C(=N)N=C(N)N` [Metformin, metformin], the “cell viability / proliferation, patient-derived pancreatic cancer cell #5” value in [1] is “suppresses; also recorded: suppress”. Moreover, the “cell viability / proliferation, patient-derived pancreatic cancer cell #15” value in [2] is listed as “suppresses; also recorded: suppress”. In addition, in the data set with MIA PaCa2 cells, the “cell viability / proliferation, MIA PaCa2” value is listed as “suppresses; also recorded: suppress”. Also, in the data set on PANC1 cells, the “cell viability / proliferation, PANC1” value was “suppresses; also recorded: suppress”. The “cell viability, AsPC1” value in the data set on AsPC1 cells is reported as “suppress”. For the same compound, the “cell viability, Capan2” value in the data set with Capan2 cells is recorded as “suppress”. Besides, the “BIRC5 mRNA expression, PDCL #5” value with BIRC5 mRNA [3] is listed as “suppress”. The “BIRC5 mRNA expression, PDCL #15” value in the data set on BIRC5 mRNA [4] is recorded as “suppress”. The “cell proliferation / viability, pancreatic cancer cell lines” value in data set [6] is listed as “suppresses”. Further, in the data set on BIRC5 promoter, the “expression from the BIRC5 promoter” value is “target BIRC5”. In addition, the “cell death/apoptosis related gene expression (DUSP15, RHOB)” value in the data set on DUSP15 and RHOB is given as “do not have an effect”. For the same compound, the “glycolysis / TCA cycle / Warburg effect related gene expression” value in data set [7] was “inhibitory effect”.

On to `C[C@@H]1O[C@@H](O[C@H]2C[C@@H](O)[C@]3(CO)[C@H]4[C@H](O)C[C@]5(C)[C@@H](C6=CC(=O)OC6)CC[C@]5(O)[C@@H]4CC[C@]3(O)C2)[C@H](O)[C@H](O)[C@H]1O` [Ouabain, ouabain], for which the “cell viability / proliferation, MIA PaCa2” value with MIA PaCa2 cells is given as “suppresses”. Also, the “BIRC5 expression in pancreatic cancer” value with BIRC5 is reported as “inhibit BIRC5 expression”.

Consider `C[C@]12CC[C@H](O)C[C@H]1CC[C@@H]1[C@@H]2CC[C@]2(C)[C@@H](c3ccc(=O)oc3)CC[C@]12O` [bufalin], for which the “BIRC5 expression in pancreatic cancer” value in the data set on BIRC5 is listed as “inhibit BIRC5 expression”.

As to `CC(C)n1c(/C=C/C(O)CC(O)CC(=O)O)c(-c2ccc(F)cc2)c2ccccc21` (centres unmarked) [fluvastatin], in the data set on MIA PaCa2 cells, the “cell viability / proliferation, MIA PaCa2” value is reported as “suppresses”. Moreover, in the data set on BIRC5 mRNA [3], the “BIRC5 mRNA expression, PDCL #5” value is “suppress”. Moreover, the “BIRC5 mRNA expression, PDCL #15” value in the data set with BIRC5 mRNA [4] is “suppress”.
